In brackets after ≈: the same amount, converted by molar mass.
How the values were obtained:
[1] = system: L. pneumophila serogroup 1; assay: microbe, parasite or virus in culture; type: cell-based, Legionella pneumophila; details: Legionella pneumophila; for MIC: 48 h, read-out: MIC Range; for MIC90: L. pneumophila serogroup 1 (n = 85)
Other Legionella spp. = assay: microbe, parasite or virus in culture; type: cell-based; details: for MIC: 48 h, read-out: MIC Range
L. dumoffii = assay: organism not typed; type: cell-based; details: for MIC: 48 h, read-out: MIC Range
[2] = system: Erythromycin-susceptible L. pneumophila; type: cell-based, Legionella pneumophila; details: Erythromycin-susceptible L. pneumophila (n = 15); 4 × MIC; mean ± SD
[3] = system: L. pneumophila serogroup 2; assay: microbe, parasite or virus in culture; type: cell-based; details: Legionella pneumophila; for MIC: 48 h, read-out: MIC Range
[4] = system: Erythromycin-susceptible Legionella spp. other than L. pneumophila; type: cell-based; details: Erythromycin-susceptible Legionella spp. (n = 13); 4 × MIC; mean ± SD
[5] = system: L. pneumophila serogroup 3; assay: microbe, parasite or virus in culture; type: cell-based; details: Legionella pneumophila; for MIC: 48 h, read-out: MIC Range
L. micadadei = assay: organism not typed; type: cell-based, L. micdadei; details: for MIC: 48 h, read-out: MIC Range
[6] = system: L. pneumophila serogroup 6; assay: microbe, parasite or virus in culture; type: cell-based; details: Legionella pneumophila; for MIC: 48 h, read-out: MIC Range
[7] = system: L. pneumophila serogroup 4; assay: microbe, parasite or virus in culture; type: cell-based; details: Legionella pneumophila; for MIC: 48 h, read-out: MIC Range
[8] = system: L. pneumophila serogroup 5; assay: microbe, parasite or virus in culture; type: cell-based; details: Legionella pneumophila; for MIC: 48 h, read-out: MIC Range
[9] = system: L. pneumophila serogroup 8, 9; assay: microbe, parasite or virus in culture; type: cell-based; details: Legionella pneumophila; for MIC: 48 h, read-out: MIC Range
[10] = system: L. pneumophila serogroup 7; assay: microbe, parasite or virus in culture; type: cell-based; details: Legionella pneumophila; for MIC: 48 h, read-out: MIC Range
L. longbeacheae = assay: organism not typed; type: cell-based; details: for MIC: 48 h, read-out: MIC Range

Row | SMILES | MIC50 [1] [µg/mL] | MIC [1] [µg/mL] | MIC90 [1] [µg/mL] | MIC50 (Other Legionella spp.) [µg/mL] | MIC90 (Other Legionella spp.) [µg/mL] | MIC (Other Legionella spp.) [µg/mL] | MIC50 (L. dumoffii) [µg/mL] | MIC90 (L. dumoffii) [µg/mL] | MIC (L. dumoffii) [µg/mL] | Mean PAE [2] [h] | MIC50 [3] [µg/mL] | MIC90 [3] [µg/mL] | MIC [3] [µg/mL] | Mean PAE [4] [h] | MIC50 [5] [µg/mL] | MIC90 [5] [µg/mL] | MIC [5] [µg/mL] | MIC50 (L. micadadei) [µg/mL] | MIC90 (L. micadadei) [µg/mL] | MIC (L. micadadei) [µg/mL] | further results
1 | CC[C@H]1OC(=O)[C@H](C)[C@@H](O[C@H]2C[C@@](C)(OC)[C@@H](O)[C@H](C)O2)[C@H](C)[C@@H](O[C@@H]2O[C@H](C)C[C@H](N(C)C)[C@H]2O)[C@](C)(O)C[C@@H](C)CN(C)[C@H](C)[C@@H](O)[C@]1(C)O [Azithromycin] | 0.06 (≈ 0.0801 µM) | 0.008 to 1 (≈ 0.0107 to 1.34 µM) | 0.5 (≈ 0.668 µM) | 0.12 (≈ 0.16 µM) | 0.5 (≈ 0.668 µM) | 0.016 to 0.5 (≈ 0.0214 to 0.668 µM) | 0.12 (≈ 0.16 µM) | 0.25 (≈ 0.334 µM) | 0.12 to 0.25 (≈ 0.16 to 0.334 µM) | 2.91 ± 3 | 0.06 (≈ 0.0801 µM) | 0.12 (≈ 0.16 µM) | 0.008 to 0.12 (≈ 0.0107 to 0.16 µM) | 1.86 ± 2 | 0.12 (≈ 0.16 µM) | 0.25 (≈ 0.334 µM) | 0.016 to 0.25 (≈ 0.0214 to 0.334 µM) | 0.25 (≈ 0.334 µM) | 0.25 (≈ 0.334 µM) | 0.016 to 0.25 (≈ 0.0214 to 0.334 µM) | MIC50 [6]: 0.06 µg/mL (≈ 0.0801 µM); MIC90 [6]: 0.12 µg/mL (≈ 0.16 µM); MIC [6]: 0.016 to 0.25 µg/mL (≈ 0.0214 to 0.334 µM); MIC50 [7]: 0.12 µg/mL (≈ 0.16 µM); MIC90 [7]: 0.12 µg/mL (≈ 0.16 µM); MIC [7]: 0.008 to 0.25 µg/mL (≈ 0.0107 to 0.334 µM); MIC50 [8]: 0.03 µg/mL (≈ 0.0401 µM); MIC90 [8]: 0.25 µg/mL (≈ 0.334 µM); MIC [8]: 0.008 to 0.5 µg/mL (≈ 0.0107 to 0.668 µM); MIC50 [9]: 0.06 µg/mL (≈ 0.0801 µM); MIC90 [9]: 0.06 µg/mL (≈ 0.0801 µM); MIC [9]: 0.06 µg/mL (≈ 0.0801 µM); MIC50 [10]: 0.06 µg/mL (≈ 0.0801 µM); MIC90 [10]: 0.06 µg/mL (≈ 0.0801 µM); MIC [10]: 0.06 µg/mL (≈ 0.0801 µM); MIC50 (L. longbeacheae): 0.12 µg/mL (≈ 0.16 µM); MIC90 (L. longbeacheae): 0.25 µg/mL (≈ 0.334 µM); MIC (L. longbeacheae): 0.016 to 0.25 µg/mL (≈ 0.0214 to 0.334 µM)
2 | CC[C@H]1OC(=O)[C@H](C)[C@@H](O[C@H]2C[C@@](C)(OC)[C@@H](O)[C@H](C)O2)[C@H](C)[C@@H](O[C@@H]2O[C@H](C)C[C@H](N(C)C)[C@H]2O)[C@](C)(OC)C[C@@H](C)C(=O)[C@H](C)[C@@H](O)[C@]1(C)O [Clarithromycin] | 0.06 (≈ 0.0802 µM) | 0.004 to 0.12 (≈ 0.00535 to 0.16 µM) | 0.06 (≈ 0.0802 µM) | 0.03 (≈ 0.0401 µM) | 0.12 (≈ 0.16 µM) | 0.004 to 0.12 (≈ 0.00535 to 0.16 µM) | 0.03 (≈ 0.0401 µM) | 0.06 (≈ 0.0802 µM) | 0.03 to 0.06 (≈ 0.0401 to 0.0802 µM) | 0.72 ± 2 | 0.03 (≈ 0.0401 µM) | 0.06 (≈ 0.0802 µM) | 0.004 to 0.06 (≈ 0.00535 to 0.0802 µM) | 0.98 ± 2 | 0.03 (≈ 0.0401 µM) | 0.06 (≈ 0.0802 µM) | 0.016 to 0.06 (≈ 0.0214 to 0.0802 µM) | 0.06 (≈ 0.0802 µM) | 0.06 (≈ 0.0802 µM) | 0.03 to 0.12 (≈ 0.0401 to 0.16 µM) | MIC50 [6]: 0.016 µg/mL (≈ 0.0214 µM); MIC90 [6]: 0.06 µg/mL (≈ 0.0802 µM); MIC [6]: 0.004 to 0.06 µg/mL (≈ 0.00535 to 0.0802 µM); MIC50 [7]: 0.03 µg/mL (≈ 0.0401 µM); MIC90 [7]: 0.06 µg/mL (≈ 0.0802 µM); MIC [7]: 0.004 to 0.06 µg/mL (≈ 0.00535 to 0.0802 µM); MIC50 [8]: 0.03 µg/mL (≈ 0.0401 µM); MIC90 [8]: 0.06 µg/mL (≈ 0.0802 µM); MIC [8]: 0.03 to 0.06 µg/mL (≈ 0.0401 to 0.0802 µM); MIC50 [9]: 0.06 µg/mL (≈ 0.0802 µM); MIC90 [9]: 0.06 µg/mL (≈ 0.0802 µM); MIC [9]: 0.06 µg/mL (≈ 0.0802 µM); MIC50 [10]: 0.016 µg/mL (≈ 0.0214 µM); MIC90 [10]: 0.06 µg/mL (≈ 0.0802 µM); MIC [10]: 0.016 to 0.06 µg/mL (≈ 0.0214 to 0.0802 µM); MIC50 (L. longbeacheae): 0.06 µg/mL (≈ 0.0802 µM); MIC90 (L. longbeacheae): 0.06 µg/mL (≈ 0.0802 µM); MIC (L. longbeacheae): 0.008 to 0.06 µg/mL (≈ 0.0107 to 0.0802 µM)

Reference: patent publication US6340689B1 (priority 1999, dated 2002)
